Tests used:
[1] = target: human orexin-2 receptor (Homo sapiens (Human), UniProt O43614); experiment: Intracellular calcium measurement (FLIPR), CHO cells expressing human orexin-2 receptor, 3 nM orexin-A; assay type: cell-based; conditions: CHO cells expressing human orexin-2 receptor, FLIPR, 3 nM orexin-A; geometric mean if determined several times; read-out: IC50 OX2
Method: (§1) In Vitro Assay: Intracellular Calcium Measurements:
(§2) Chinese hamster ovary (CHO) cells expressing the human orexin-1 receptor and the human orexin-2 receptor, respectively, are grown in culture medium (Ham F-12 with L-Glutamine) containing 300 μg/mL G418, 100 U/mL penicillin, 100 μg/mL streptomycin and 10% heat inactivated fetal calf serum (FCS). The cells are seeded at 20,000 cells/well into 384-well black clear bottom sterile plates (Greiner). The seeded plates are incubated overnight at 37° C. in 5% CO2.
(§3) Human orexin-A as an agonist is prepared as 1 mM stock solution in MeOH: water (1:1), diluted in HBSS containing 0.1% bovine serum albumin (BSA), NaHCO3: 0.375 g/L and 20 mM HEPES for use in the assay at a final concentration of 3 nM.
(§4) Antagonists are prepared as 10 mM stock solution in DMSO, then diluted in 384-well plates using DMSO followed by a transfer of the dilutions into in HBSS containing 0.1% bovine serum albumin (BSA), NaHCO3: 0.375 g/L and 20 mM HEPES. On the day of the assay, 50 μL of staining buffer (HBSS containing 1% FCS, 20 mM HEPES, NaHCO3: 0.375 g/L, 5 mM probenecid (Sigma) and 3 μM of the fluorescent calcium indicator fluo-4 AM (1 mM stock solution in DMSO, containing 10% pluronic) is added to each well. The 384-well cell-plates are incubated for 50 min at 37° C. in 5% CO2 followed by equilibration at rt for 30 min before measurement.
(§5) Within the Fluorescent Imaging Plate Reader (FLIPR Tetra, Molecular Devices), antagonists are added to the plate in a volume of 10 μL/well, incubated for 120 min and finally 10 μL/well of agonist is added. Fluorescence is measured for each well at 1 second intervals, and the height of each fluorescence peak is compared to the height of the fluorescence peak induced by 3 nM orexin-A with vehicle in place of antagonist. […] Optimized conditions were achieved by adjustment of pipetting speed and cell splitting regime. The calculated IC50 values may fluctuate depending on the daily cellular assay performance. Fluctuations of this kind are known to those skilled in the art.

[2] = target: orexin-1 (Homo sapiens (Human), UniProt O43613); experiment: Intracellular calcium measurement (FLIPR), CHO cells expressing human orexin-1 receptor, 3 nM orexin-A; assay type: cell-based; conditions: CHO cells expressing human orexin-1 receptor, FLIPR, 3 nM orexin-A; geometric mean if determined several times; read-out: IC50 OX1
Method: as §1, §2, §3, §4, §5

orexin-1, sequence (O43613 whole entry): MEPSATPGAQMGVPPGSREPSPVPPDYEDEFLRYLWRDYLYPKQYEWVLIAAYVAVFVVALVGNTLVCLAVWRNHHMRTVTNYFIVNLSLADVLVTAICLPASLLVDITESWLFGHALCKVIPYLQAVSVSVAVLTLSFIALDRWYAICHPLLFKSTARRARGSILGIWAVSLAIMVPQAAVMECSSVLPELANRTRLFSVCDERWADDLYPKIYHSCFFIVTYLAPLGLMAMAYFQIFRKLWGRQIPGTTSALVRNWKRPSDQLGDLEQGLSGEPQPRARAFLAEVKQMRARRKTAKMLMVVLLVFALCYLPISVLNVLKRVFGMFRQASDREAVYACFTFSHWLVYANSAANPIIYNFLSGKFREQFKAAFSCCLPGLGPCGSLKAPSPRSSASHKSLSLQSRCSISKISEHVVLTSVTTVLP
human orexin-2 receptor, sequence (O43614 whole entry): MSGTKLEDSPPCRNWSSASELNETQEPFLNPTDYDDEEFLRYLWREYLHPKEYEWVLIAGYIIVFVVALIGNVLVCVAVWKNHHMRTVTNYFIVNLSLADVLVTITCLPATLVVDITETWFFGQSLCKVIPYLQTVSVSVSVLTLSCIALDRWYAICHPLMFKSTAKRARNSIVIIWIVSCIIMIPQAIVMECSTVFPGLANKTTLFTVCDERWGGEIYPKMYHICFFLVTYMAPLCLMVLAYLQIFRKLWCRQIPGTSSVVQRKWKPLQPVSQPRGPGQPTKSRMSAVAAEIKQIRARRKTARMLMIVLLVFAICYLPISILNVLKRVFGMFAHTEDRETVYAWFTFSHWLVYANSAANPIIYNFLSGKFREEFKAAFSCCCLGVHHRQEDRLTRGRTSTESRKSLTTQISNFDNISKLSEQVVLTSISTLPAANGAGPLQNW

Compound | IC50 [1] [nM] | IC50 [2] [nM]
COc1cccc(-c2nnc([C@@H]3CCCN3C(=O)c3cc(C)ccc3-n3nccn3)o2)c1 [Example 456, {(S)-2-[5-(3-Methoxy-phenyl)-[1,3,4]oxadiazol-2-yl]-pyrrolidin-1-yl}-(5-methyl-2-[1,2,3]triazol-2-yl-phenyl)-methanone] | 536 | 1740
COc1ccc(-c2nnc([C@@H]3CCCN3C(=O)c3cc(C)ccc3-n3nccn3)o2)cc1 [Example 457, {(S)-2-[5-(4-Methoxy-phenyl)-[1,3,4]oxadiazol-2-yl]-pyrrolidin-1-yl}-(5-methyl-2-[1,2,3]triazol-2-yl-phenyl)-methanone] | 3440 | 17000
Cc1ccc(-n2nccn2)c(C(=O)N2CCC[C@H]2c2nc(-c3ccccc3)co2)c1 [Example 459, (5-Methyl-2-[1,2,3]triazol-2-yl-phenyl)-[(S)-2-(4-phenyl-oxazol-2-yl)-pyrrolidin-1-yl]-methanone] | 295 | 129
Cc1ccc(-n2nccn2)c(C(=O)N2CCC[C@H]2c2ncc(-c3ccccc3)o2)c1 [Example 461, (5-Methyl-2-[1,2,3]triazol-2-yl-phenyl)-[(S)-2-(5-phenyl-oxazol-2-yl)-pyrrolidin-1-yl]-methanone] | 465 | 115
Cc1ccc(-n2nccn2)c(C(=O)N2CCC[C@H]2c2nnc(-c3ccccc3)[nH]2)c1 [Example 463, (5-Methyl-2-[1,2,3]triazol-2-yl-phenyl)-[(S)-2-(5-phenyl-4H-[1,2,4]triazol-3-yl)-pyrrolidin-1-yl]-methanone] | 209 | 704
COc1ccccc1-c1nnc([C@@H]2CCCN2C(=O)c2cc(C)ccc2-n2nccn2)[nH]1 [Example 464, {(S)-2-[5-(2-Methoxy-phenyl)-4H-[1,2,4]triazol-3-yl]-pyrrolidin-1-yl}-(5-methyl-2-[1,2,3]triazol-2-yl-phenyl)-methanone] | 124 | 49
Cc1ccc(-n2nccn2)c(C(=O)N2CCC[C@H]2c2cc(-c3ccccc3)n[nH]2)c1 [Example 530, (5-Methyl-2-[1,2,3]triazol-2-yl-phenyl)-[(S)-2-(5-phenyl-2H-pyrazol-3-yl)-pyrrolidin-1-yl]-methanone] | 222 | 386
Cc1ccc(-n2nccn2)c(C(=O)N2CCC[C@H]2c2ncn(-c3ccccc3)n2)c1 [Example 535, (5-Methyl-2-[1,2,3]triazol-2-yl-phenyl)-[(S)-2-(1-phenyl-1H-[1,2,4]triazol-3-yl)-pyrrolidin-1-yl]-methanone] | 363 | 47

Compounds with a lower IC50 [1], results first:

IC50 [1] [nM] | IC50 [2] [nM] | Compound
112 | 176 | Cc1ccc(-n2nccn2)c(C(=O)N2CCC[C@H]2c2nnc(-c3ccccc3OC(F)(F)F)s2)c1 [Example 458, (5-Methyl-2-[1,2,3]triazol-2-yl-phenyl)-{(S)-2-[5-(2-trifluoromethoxy-phenyl)-[1,3,4]thiadiazol-2-yl]-pyrrolidin-1-yl}-methanone]
16 | 10 | Cc1ccc(-n2nccn2)c(C(=O)N2CCC[C@H]2c2nc(-c3ccccc3OC(F)(F)F)co2)c1 [Example 460, (5-Methyl-2-[1,2,3]triazol-2-yl-phenyl)-{(S)-2-[4-(2-trifluoromethoxy-phenyl)-oxazol-2-yl]-pyrrolidin-1-yl}-methanone]
113 | 642 | Cc1cc(C)cc(-c2nnc([C@@H]3CCCN3C(=O)c3cc(C)ccc3-n3nccn3)[nH]2)c1 [Example 511, {(S)-2-[5-(3,5-Dimethyl-phenyl)-4H-[1,2,4]triazol-3-yl]-pyrrolidin-1-yl}-(5-methyl-2-[1,2,3]triazol-2-yl-phenyl)-methanone]
18 | 18 | COc1ccccc1-c1cnc([C@@H]2CCCN2C(=O)c2cc(C)ccc2-n2nccn2)[nH]1 [Example 516, {(S)-2-[5-(2-Methoxy-phenyl)-1H-imidazol-2-yl]-pyrrolidin-1-yl}-(5-methyl-2-[1,2,3]triazol-2-yl-phenyl)-methanone]

Source: US9493446B2, “Orexin receptor antagonists which are [ortho bi-(hetero-)aryl]-[2-(meta bi-(hetero-)aryl)-pyrrolidin-1-yl]-methanone derivatives” (Actelion Pharmaceuticals Ltd, priority 2012, dated 2016)
